Assay results: patent US20040266863A1, “Use of (11beta,17beta)-11-(1,3-benzodioxol-5-yl)-17-hydroxy-17-(1-propynyl)-estra-4,9-dien-3-one in the treatment of major depressive disorder” (priority 2001, published 2004)

What was measured:
[1] = test system: (healthy) humans; test: clinical study of antiglucocorticoid activity in healthy humans (cortisol increase, dexamethason antagonism); format: in vivo, human
[2] = test system: depressed patients (Major Depressive Disorder); test: double blind, 4 week, paroxetine controlled study in patients with Major Depressive Disorder (HAMD-21); format: in vivo, human; conditions: for difference on the Hamilton scale versus paroxetine (onset of antidepressant effect): 150 mg treatment group
Procedure: A double blind, 4 week, paroxetine controlled study of Org 34517 in depressed patients was carried out. Paroxetine is a selective serotonin re-uptake inhibitor which is recognized as an effective antidepressant for major depression.
Patients were randomly allocated to one of three treatment groups. Group I patients (Org 150 group: 50 patients) received 2 capsules with 75 mg of Org 34517 and one placebo (total daily dose 150 mg) for the first 2 weeks and 2 capsules with 75 mg Org 34517 and 1 capsule with 150 mg (total daily dose 300 mg) the next 2 weeks; Group II patients (Org 450 group: 46 patients) received 3 capsules with 150 mg Org 34517 (total daily dose 450 mg) in the first 2 weeks and 4 capsules of Org 34517 (total daily dose 600 mg) in the next 2 weeks; Group III patients (paroxetine group: 44 patients) received 2 capsules with 10 mg paroxetine and one placebo capsule (total daily dose 20 mg) for the first 2 weeks, followed by 2 capsules of 10 mg and one capsule of 20 mg paroxetine (total daily dose 40 mg) in the next 2 weeks. Medication was administered orally in the morning. Efficacy assessment was done on days 4, 7, 10, 14, 21, 28 and 35 by using the 21-item HAMD scale.
Afternoon cortisol plasma levels (ACT=afternoon cortisol test) were measured as described by Halbreich et al (J. Clin. Endocrinol. Metab. 54(6), 1262, 1982).

[3] = target: T1, glucocorticoid receptor (Homo sapiens, UniProt P04150); test: in vitro binding to the glucocorticoid receptor
T1 sequence (P04150 1-777): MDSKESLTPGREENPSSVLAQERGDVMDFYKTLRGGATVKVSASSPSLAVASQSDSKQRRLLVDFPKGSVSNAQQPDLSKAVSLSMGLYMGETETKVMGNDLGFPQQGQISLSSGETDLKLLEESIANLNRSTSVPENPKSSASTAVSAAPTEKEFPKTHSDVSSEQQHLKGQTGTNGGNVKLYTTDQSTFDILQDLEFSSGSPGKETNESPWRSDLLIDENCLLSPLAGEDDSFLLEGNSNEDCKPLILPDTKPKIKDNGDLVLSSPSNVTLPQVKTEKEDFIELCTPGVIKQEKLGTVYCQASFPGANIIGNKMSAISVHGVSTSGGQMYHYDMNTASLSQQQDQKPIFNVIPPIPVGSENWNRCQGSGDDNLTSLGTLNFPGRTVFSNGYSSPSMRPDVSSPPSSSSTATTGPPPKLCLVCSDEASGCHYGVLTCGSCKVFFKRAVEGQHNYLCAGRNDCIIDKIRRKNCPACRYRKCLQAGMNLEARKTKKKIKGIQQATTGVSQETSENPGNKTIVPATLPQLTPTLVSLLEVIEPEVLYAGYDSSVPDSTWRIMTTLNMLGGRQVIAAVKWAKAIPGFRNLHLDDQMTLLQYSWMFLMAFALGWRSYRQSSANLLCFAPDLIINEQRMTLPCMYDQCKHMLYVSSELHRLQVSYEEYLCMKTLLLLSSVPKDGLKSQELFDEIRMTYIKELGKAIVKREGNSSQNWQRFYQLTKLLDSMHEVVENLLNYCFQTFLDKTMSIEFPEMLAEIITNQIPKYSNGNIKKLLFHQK

[4] = test system: immature dexamethasone treated male rats; test: in vivo antiglucocorticoid activity in immature dexamethasone treated male rats (procedure of Kloosterboer et al); design: species or system rat; conditions: for threshold dose for demonstrating in vivo antiglucocorticoid effects: rat
[5] = test system: patients with psychotic major depression; conditions: 8-12 mg/kg/day over 4 days (WO 99/17779); cited from earlier work

SMILES	antiglucocorticoid potency relative to mifepristone, estimated on the amount of dexamethason antagonism [1] [%]	antiglucocorticoid potency relative to mifepristone, estimated on the basis of the cortisol increase [1]	difference on the Hamilton scale versus paroxetine (onset of antidepressant effect) ([2]; all patients, day 10, FIG. 1) [point]	onset of antidepressant effect ([2]; daily dosage not exceeding 300 mg compared with 450 mg or more)	difference on the Hamilton scale versus paroxetine (onset of antidepressant effect) ([2]; dexamethason non-suppressors, day 10, FIG. 3) [point]	difference on the Hamilton scale versus paroxetine (onset of antidepressant effect) ([2]; patients with afternoon plasma cortisol higher than 10 μg/dl at start, day 10, FIG. 2) [point]	potency in in vitro binding to the glucocorticoid receptor, relative to mifepristone [3] [%]	antiglucocorticoid activity: effect (weight gain) on body weight, adrenals, thymus and spleen ([4]; orally applied, 10 mg/kg to 40 mg/kg, immature dexamethasone treated male rats)	threshold dose for demonstrating in vivo antiglucocorticoid effects [4] [mg/kg]	treatment of psychosis associated with psychotic major depression [5]
CC#C[C@]1(O)CC[C@H]2[C@@H]3CCC4=CC(=O)CCC4=C3[C@@H](c3ccc4c(c3)OCO4)C[C@@]21C [Org 34517, (11β,17β)-11-(1,3-benzodioxol-5-yl)-17-hydroxy-17-(1-propynyl)estra-4,9-dien-3-one]	17	10-25%	~2	fast onset of antidepressant effect	~6	~4	52	proved to increase with the dose	20	–
CC#C[C@]1(O)CC[C@H]2[C@@H]3CCC4=CC(=O)CCC4=C3[C@@H](c3ccc(N(C)C)cc3)C[C@@]21C [mifepristone, 17β-hydroxy-11β-(4-dimethylaminophenyl)-17α-(1-propynyl)estra-4,9-dien-3-one, reference compound]	–	–	–	–	–	–	–	–	5	effective
